Patent US8513220B2, “Aromatic compounds having sphingosine-1-phosphonate (S1P) receptor activity” (Allergan, Inc., priority 2010, dated 2013)

What was measured:
[1] = molecular target: T1, human S1P1 receptor (Homo sapiens, UniProt P21453); assay: GTP γ35S binding assay for S1P1 activity; type: biochemical; conditions: for activation at 5 µM: S1P1 receptor GTPγ^35S, read-out: % STIMULATION @ 5 μM; for EC50: S1P1 receptor, membranes, compounds 0.08 to 5,000 nM, read-out: GTPγ^35S EC50
T1 construct: expressed in transfected cells; membranes used
T1 sequence (P21453 whole entry): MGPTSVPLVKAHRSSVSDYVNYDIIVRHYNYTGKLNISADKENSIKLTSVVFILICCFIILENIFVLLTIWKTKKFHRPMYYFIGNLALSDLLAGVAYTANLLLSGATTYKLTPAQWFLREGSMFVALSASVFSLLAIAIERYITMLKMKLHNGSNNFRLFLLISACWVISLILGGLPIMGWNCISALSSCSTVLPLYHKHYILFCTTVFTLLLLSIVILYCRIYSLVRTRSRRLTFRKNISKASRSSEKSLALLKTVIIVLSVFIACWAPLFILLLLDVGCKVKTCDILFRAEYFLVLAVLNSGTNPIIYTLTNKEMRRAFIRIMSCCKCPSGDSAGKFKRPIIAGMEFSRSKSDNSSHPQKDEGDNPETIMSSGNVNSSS
Experimental: Novel compounds were synthesized and tested for S1P1 activity using the GTP γ^35S binding assay. These compounds may be assessed for their ability to activate or block activation of the human S1P1 receptor in cells stably expressing the S1P1 receptor. GTP γ^35S binding was measured in the medium containing (mM) HEPES 25, pH 7.4, MgCl2 10, NaCl 100, dithitothreitol 0.5, digitonin 0.003%, 0.2 nM GTP γ^35S, and 5 μg membrane protein in a volume of 150 μl. Test compounds were included in the concentration range from 0.08 to 5,000 nM unless indicated otherwise. Membranes were incubated with 100 μM 5′-adenylylimmidodiphosphate for 30 min, and subsequently with 10 μM GDP for 10 min on ice. Drug solutions and membrane were mixed, and then reactions were initiated by adding GTP γ^35S and continued for 30 min at 25° C. Reaction mixtures were filtered over Whatman GF/B filters under vacuum, and washed three times with 3 mL of ice-cold buffer (HEPES 25, pH7.4, MgCl2 10 and NaCl 100). Filters were dried and mixed with scintillant, and counted for ^35S activity using a […]. Agonist-induced GTP γ^35S binding was obtained by subtracting that in the absence of agonist. Binding data were analyzed using a non-linear regression method. In case of antagonist assay, the reaction mixture contained 10 nM S1P in the presence of test antagonist at concentrations ranging from 0.08 to 5000 nM.
Activity potency: S1P1 receptor from GTP γ^35S: nM, (EC50)

[2] = tested on: lymphocytes in blood; assay: Lymphopenia assay in mice (in vivo blood lymphocyte depletion); conditions: female C57BL6 mice, 10 mg/Kg subcutaneous
Experimental: Test drugs are prepared in a solution containing 3% (w/v) 2-hydroxy propyl β-cyclodextrin (HPBCD) and 1% DMSO to a final concentration of 1 mg/ml, and subcutaneously injected to female C57BL6 mice (CHARLES RIVERS) weighing 20-25 g at the dose of 10 mg/Kg. Blood samples are obtained by puncturing the submandibular skin with a Goldenrod animal lancet at 5, 24, 48, 72, and 96 hrs post drug application. Blood is collected into microvettes (SARSTEDT) containing EDTA tripotassium salt. Lymphocytes in blood samples are counted using a HEMAVET Multispecies Hematology System, HEMAVET HV950FS (Drew Scientific Inc.). (Hale, J. et al Bioorg. & Med. Chem. Lett. 14 (2004) 3351).
A lymphopenia assay in mice; as previously described, was employed to measure the in vivo blood lymphocyte depletion after dosing with: • (3-{[5-(4-Hexyl-phenyl)-6-thiophen-2-yl-pyridin-2-ylmethyl]-amino}-propyl)-phosphonic acid, Compound 2 (FIG. 1); • (3-{[6-(5-Fluoro-thiophen-2-yl)-5-(4-hexyl-phenyl)-pyridin-2-ylmethyl]-amino}-propyl)-phosphonic acid, Compound 3 (FIG. 2); • (3-{[5-(4-Hexyl-3-propyl-phenyl)-6-thiophen-2-yl-pyridin-2-ylmethyl]-amino}-propyl)-phosphonic acid, Compound 4 (FIG. 3); • [3-({5-[4-(3-Phenyl-propyl)-phenyl]-6-thiophen-2-yl-pyridin-2-ylmethyl}-amino)-propyl]-phosphonic acid, Compound 5 (FIG. 4); • (3-{[5-(4-Hexyl-phenyl)-6-thiophen-3-yl-pyridin-2-ylmethyl]-amino}-propyl)-phosphonic acid, Compound 6 (FIG. 5); • (3-{[5-(4-Hexyl-phenyl)-6-oxazol-4-yl-pyridin-2-ylmethyl]-amino}-propyl)-phosphonic acid, Compound 7 (FIG. 6); • (3-{[6-Furan-2-yl-5-(4-hexyl-phenyl)-pyridin-2-ylmethyl]-amino}-propyl)-phosphonic acid, Compound 9 (FIG. 7); • [3-({6-Phenyl-5-[4-(3-phenyl-propyl)-phenyl]-pyridin-2-ylmethyl}-amino)-propyl]-phosphonic acid, Compound 14 (FIGS. 8) and • (3-{[5-(4-Hexyl-3-propyl-phenyl)-6-phenyl-pyridin-2-ylmethyl]-amino}-propyl)-phosphonic acid, Compound 16 (FIG. 9).
These S1P agonist (or modulator) is useful for S1P-related diseases, and exemplified by the lymphopenia in vivo response. In general, test drugs Compound 3 and 16 were prepared in a solution containing 3% (w/v) 2-hydroxy propyl β-cyclodextrin (HPBCD) and 1% DMSO to a final concentration of 1 mg/ml, and subcutaneously injected to female C57BL6 mice (CHARLES RIVERS) weighing 20-25 g at the dose of 10 mg/Kg. Blood samples were obtained by puncturing the submandibular skin with a Goldenrod animal lancet at 5, 24, 48, and 72 hrs post drug application. Blood was collected into microvettes (SARSTEDT) containing EDTA tripotassium salt. Lymphocytes in blood samples were counted using a HEMAVET Multispecies Hematology System, HEMAVET HV950FS (Drew Scientific Inc.). Results are shown in the following figures below that depict lowered lymphocyte count after 5 hours (<1 number of lymphocytes 10^3/μL blood).

SMILES	activation at 5 µM [1] [%]	EC50 [1] [nM]	number of lymphocytes found in the blood ([2]; after 24 h of drug application)	number of lymphocytes found in the blood ([2]; after 72 h of drug application)	number of lymphocytes found in the blood ([2]; after 48 h of drug application)	number of lymphocytes found in the blood ([2]; after 5 h of drug application)
CCCCCCc1ccc(-c2ccc(CNCCCP(=O)(O)O)cc2-c2ccccc2)nc1 [Compound 1, (3-{[6-(5-Hexyl-pyridin-2-yl)-biphenyl-3-ylmethyl]-amino}-propyl)-phosphonic acid]	79.4	317	–	–	–	–
CCCCCCc1ccc(-c2ccc(CNCCCP(=O)(O)O)nc2-c2cccs2)cc1 [Compound 2, (3-{[5-(4-Hexyl-phenyl)-6-thiophen-2-yl-pyridin-2-ylmethyl]-amino}-propyl)-phosphonic acid]	68.1	5.26	reduced	–	–	–
CCCCCCc1ccc(-c2ccc(CNCCCP(=O)(O)O)nc2-c2ccc(F)s2)cc1 [Compound 3, (3-{[6-(5-Fluoro-thiophen-2-yl)-5-(4-hexyl-phenyl)-pyridin-2-ylmethyl]-amino}-propyl)-phosphonic acid]	111	25.1	–	reduced	–	–
CCCCCCc1ccc(-c2ccc(CNCCCP(=O)(O)O)nc2-c2cccs2)cc1CCC [Compound 4, (3-{[5-(4-Hexyl-3-propyl-phenyl)-6-thiophen-2-yl-pyridin-2-ylmethyl]-amino}-propyl)-phosphonic acid]	79.1	7.72	–	reduced	–	–
O=P(O)(O)CCCNCc1ccc(-c2ccc(CCCc3ccccc3)cc2)c(-c2cccs2)n1 [Compound 5, [3-({5-[4-(3-Phenyl-propyl)-phenyl]-6-thiophen-2-yl-pyridin-2-ylmethyl}-amino)-propyl]-phosphonic acid]	91.1	2.36	–	–	reduced	–
CCCCCCc1ccc(-c2ccc(CNCCCP(=O)(O)O)nc2-c2ccsc2)cc1 [Compound 6, (3-{[5-(4-Hexyl-phenyl)-6-thiophen-3-yl-pyridin-2-ylmethyl]-amino}-propyl)-phosphonic acid]	76.9	9.19	–	–	reduced	–
CCCCCCc1ccc(-c2ccc(CNCCCP(=O)(O)O)nc2-c2cocn2)cc1 [Compound 7, (3-{[5-(4-Hexyl-phenyl)-6-oxazol-4-yl-pyridin-2-ylmethyl]-amino}-propyl)-phosphonic acid]	86.1	0.87	reduced	–	–	–
O=P(O)(O)CCCNCc1ccc(-c2ccc(CCC(F)(F)C(F)(F)C(F)(F)C(F)(F)F)cc2)c(-c2ccccc2)c1 [Compound 11, (3-{[4-(3,3,4,4,5,5,6,6,6-Nonafluoro-hexyl)-[1,1′;2′,1″]terphenyl-4′-ylmethyl]-amino}-propyl)-phosphonic acid]	71.8	416	–	–	–	–

Further lines, with some results ahead:

activation at 5 µM [1] [%]	EC50 [1] [nM]	SMILES	number of lymphocytes found in the blood ([2]; after 24 h of drug application)	number of lymphocytes found in the blood ([2]; after 72 h of drug application)	number of lymphocytes found in the blood ([2]; after 48 h of drug application)	number of lymphocytes found in the blood ([2]; after 5 h of drug application)
89.3	6.52	CCCCCCc1ccc(-c2ccc(CNCCCP(=O)(O)O)nc2-c2nccs2)cc1 [Compound 8, (3-{[5-(4-Hexyl-phenyl)-6-thiazol-2-yl-pyridin-2-ylmethyl]-amino}-propyl)-phosphonic acid]	–	–	–	–
88.6	0.44	CCCCCCc1ccc(-c2ccc(CNCCCP(=O)(O)O)nc2-c2ccco2)cc1 [Compound 9, (3-{[6-Furan-2-yl-5-(4-hexyl-phenyl)-pyridin-2-ylmethyl]-amino}-propyl)-phosphonic acid]	–	–	reduced	–
64	625	O=P(O)(O)CCCNCc1ccc(-c2ccc(CCCc3ccccc3)cc2)c(-c2ccccc2)c1 [Compound 12, (3-{[4-(3-Phenyl-propyl)-[1,1′;2′,1″]terphenyl-4′-ylmethyl]-amino}-propyl)-phosphonic acid]	–	–	–	–
64	2430	O=P(O)(O)CCCNCc1ccc(-c2ccc(CCCc3ccccc3)cc2)c(-c2cccc(Cl)c2)n1 [Compound 13, [3-({6-(3-Chloro-phenyl)-5-[4-(3-phenyl-propyl)-phenyl]-pyridin-2-ylmethyl}-amino)-propyl]-phosphonic acid]	–	–	–	–
86.6	93.8	O=P(O)(O)CCCNCc1ccc(-c2ccc(CCCc3ccccc3)cc2)c(-c2ccccc2)n1 [Compound 14, [3-({6-Phenyl-5-[4-(3-phenyl-propyl)-phenyl]-pyridin-2-ylmethyl}-amino)-propyl]-phosphonic acid]	–	–	–	reduced
73.1	29.6	CCCCCCc1ccc(-c2ccc(CNCCCP(=O)(O)O)nc2-c2ccccc2)cc1CCC [Compound 16, (3-{[5-(4-Hexyl-3-propyl-phenyl)-6-phenyl-pyridin-2-ylmethyl]-amino}-propyl)-phosphonic acid]	–	–	–	reduced
83.9	2200	CCCCCOc1ccc(-c2ccc(CNCCCP(=O)(O)O)nc2-c2cccc(F)c2)cc1 [Compound 17, (3-{[6-(3-Fluoro-phenyl)-5-(4-pentyloxy-phenyl)-pyridin-2-ylmethyl]-amino}-propyl)-phosphonic acid]	–	–	–	–
104	472	CCCCCOc1ccc(-c2ccc(CNCCCP(=O)(O)O)nc2-c2ccc(F)cc2)cc1 [Compound 18, (3-{[6-(4-Fluoro-phenyl)-5-(4-pentyloxy-phenyl)-pyridin-2-ylmethyl]-amino}-propyl)-phosphonic acid]	–	–	–	–
95.5	358	CCCCCOc1ccc(-c2ccc(CNCCCP(=O)(O)O)nc2-c2ccccc2)cc1 [Compound 19, (3-{[5-(4-Pentyloxy-phenyl)-6-phenyl-pyridin-2-ylmethyl]-amino}-propyl)-phosphonic acid]	–	–	–	–
94.7	833	CCCCCCc1ccc(-c2ccc(CNCCCP(=O)(O)O)cc2-c2ccccc2)cn1 [Compound 20, (3-{[6-(6-Hexyl-pyridin-3-yl)-biphenyl-3-ylmethyl]-amino}-propyl)-phosphonic acid]	–	–	–	–
89.7	771	CCCCCCCCc1ccc(-c2ccc(CNCCCP(=O)(O)O)cc2-c2ccccc2)cn1 [Compound 22, (3-{[6-(6-Octyl-pyridin-3-yl)-biphenyl-3-ylmethyl]-amino}-propyl)-phosphonic acid]	–	–	–	–
112	252	CCCCCCc1ccc(-c2ccc(CNCCCP(=O)(O)O)nc2-c2ccccc2)cc1 [Compound 27, (3-{[5-(4-Hexyl-phenyl)-6-phenyl-pyridin-2-ylmethyl]-amino}-propyl)-phosphonic acid]	–	–	–	–
